In ChEMBL document CHEMBL3244341, “Potential antiinflammatory compounds. 2. Acidic antiinflammatory 1,2-benzisoxazoles” (J Med Chem, 1979):
Active and inactive are the calls of the source. The calls are words filed in the database; no cut-off is given here.

Assays:
[1] = system: Rattus norvegicus; experiment: Antiinflammatory activity in rat assessed as reduction in carrageenan-induced foot edema at 50 mg/kg, po; assay type: functional
[2] = Toxicity in po dosed mouse; assay type: organism-based; details: in vivo
[3] = system: Rattus norvegicus; experiment: Antiinflammatory activity in rat assessed as reduction in carrageenan-induced foot edema at 50 mg/kg, po relative to phenylbutazone-treated control; assay type: functional
[4] = system: Rattus norvegicus; experiment: Antiinflammatory activity in rat assessed as reduction in carrageenan-induced foot edema at 50 mg/kg, po bid administered 3 hrs and again 0.5 hrs prior to carrageenan challenge; assay type: functional
[5] = system: Rattus norvegicus; experiment: Antiinflammatory activity in rat assessed as reduction in carrageenan-induced foot edema at 50 mg/kg, po bid administered 3 hrs and again 0.5 hrs prior to carrageenan challenge relative to phenylbutazone-treated control; assay type: functional
[6] = system: Rattus norvegicus; experiment: Antiinflammatory activity in rat assessed as reduction in carrageenan-induced foot edema at 50 mg/kg, po relative to hydrocortisone-treated control; assay type: functional
[7] = organism: Rattus norvegicus; experiment: Antiinflammatory activity against mycobacterial adjuvant-induced arthritis in albino rat assessed as reduction in foot swelling by micrometer analysis; assay type: functional, organism-based
[8] = system: Rattus norvegicus; experiment: Antiinflammatory activity in rat assessed as reduction in carrageenan-induced foot edema at 25 mg/kg, po; assay type: functional

Row | SMILES | inhibition in vivo at 50 mg/kg [1] | LD50 [2] | inhibition in vivo at 50 mg/kg [3] | inhibition in vivo at 50 mg/kg [4] | inhibition in vivo at 50 mg/kg [5] | inhibition in vivo at 50 mg/kg [6] | inhibition [7] | inhibition in vivo at 25 mg/kg [8]
1 | CC(C(=O)O)c1ccc2c(-c3ccc(F)cc3)noc2c1 (configuration not stated) | 37% | 400 mg/kg | 57% |  |  |  |  | 
2 | O=C(O)Cc1ccc2onc(-c3ccc(Cl)cc3)c2c1 |  | 600 mg/kg |  | 22% | 36% |  |  | 
3 | CC(C(=O)O)c1ccc2c(-c3ccc(Cl)cc3)noc2c1 (configuration not stated) | 46% | 600 mg/kg |  |  |  | 38% |  | 
4 | CC(C(=O)O)c1ccc2onc(-c3ccc(Cl)cc3)c2c1 (configuration not stated) | 18% | 800 mg/kg |  |  |  | 38% |  | 
5 | O=C(O)Cc1cccc2c(-c3ccc(Cl)cc3)noc12 | 36% | 600 mg/kg | 49% |  |  |  |  | 
6 | CC(C(=O)O)c1cccc2c(-c3ccccc3)noc12 (configuration not stated) | 42% | 1600 mg/kg | 32% |  |  |  |  | 
7 | CC(C(=O)O)c1cccc2c(-c3ccc(Cl)cc3)noc12 (configuration not stated) |  | 200 mg/kg | 48% |  |  |  | Active | 46%
